“Also recorded” adds a separate entry of the source. Like-named read-outs stand apart in the source and are kept apart here. Values belong to the compound of their own block, whether it stands above or below them.
How the values were obtained:
PHMG poisoning = assay: Acute hepatitis caused by alcohol substitute PHMG in rats; conditions: single intraperitoneal injection, 50 mg/100 g
Experimental: The experiment was carried out on 25 male white outbred rats weighing 200-300 g, in accordance with the recommendations of the international ethics committees on the humane treatment of laboratory animals (EU Council Directive 86/609 EEC dated Nov. 24, 1986). To create an experimental model, an aqueous solution of PHMG was used, which was administered intraperitoneally at a dose of 50 mg/100 g.

[1] = tested on: porcine large intestine (colon); assay: in vitro; conditions: pig, 10 mM, pH 7.4
Experimental: (§1) The intestine was prepared so the mucous side will be facing the donor compartment.

in vitro = conditions: pig, pH 7.4
Experimental: as §1

[2] = cited from earlier work
porcine stomach (cardia) = conditions: for concentration in receptor compartment, Propranolol stomach, AVG / concentration in receptor compartment, Propranolol stomach: 10 mM donor solution; for concentration in receptor compartment, Propranolol stomach: single chambers

Experimental for porcine small intestine: Porcine Small Intestinal (SI) Permeability Procedure • Full thickness pig small intestinal delivered to Solubest on the day of the experiment. • Experiments were carried out on 6 slices 2 cm*2 cm with full thickness pig small intestinal sample • The intestinal was prepared so brush border side is facing the donor compartment. • According to Solubest protocol the excess mucus and connective tissue were removed • The receiver compartment contains 0.01M Phosphate Buffer pH 7.4 (PBS). • Receiver's samples were withdrawn at 5 time points (30 min, 60 min, 120 min, 4 hours and 6 hours). • Water pump was set to temp 38±1° C. in order to keep fixed temp in receptor department at 37±1° C.

Compound: polyhexamethyleneguanidine [PHMG]
mortality (PHMG poisoning): about 70%

concentration in receptor comp, large intestine, AVG ([1]; 0 min): 0 ng/mL
concentration in receptor compartment, large intestine ([1]; 0 min): 0 ng/mL
mg in receptor comp ([1]; 0 min): 0.000 mg
concentration in receptor comp, large intestine, AVG ([1]; 30 min): 2000 ng/mL
mg in receptor comp ([1]; 30 min): 0.010 mg
concentration in receptor comp, large intestine, AVG ([1]; 60 min): 5000 ng/mL
mg in receptor comp ([1]; 60 min): 0.026 mg
concentration in receptor comp, large intestine, AVG ([1]; 120 min): 14000 ng/mL
mg in receptor comp ([1]; 120 min): 0.068 mg
concentration in receptor comp, large intestine, AVG ([1]; 240 min): 31000 ng/mL
mg in receptor comp ([1]; 240 min): 0.154 mg
concentration in receptor comp, large intestine, AVG ([1]; 360 min): 45000 ng/mL
mg in receptor comp ([1]; 360 min): 0.223 mg
concentration in receptor comp, large intestine, AVG ([1]; 720 min): 84000 ng/mL
mg in receptor comp ([1]; 720 min): 0.421 mg
recovery at 0 min, 10 mM (in vitro): 0%
recovery at 30 min, 10 mM (in vitro): 0.16%
recovery at 60 min, 10 mM (in vitro): 0.4%
recovery at 120 min, 10 mM (in vitro): 1.04%
recovery at 240 min, 10 mM (in vitro): 2.36%
recovery at 360 min, 10 mM (in vitro): 3.43%
recovery at 720 min, 10 mM (in vitro): 6.47%
permeability through small intestine tissue, in words (porcine small intestine): well adsorbed
concentration in receptor compartment, small intestine, AVG (porcine small intestine; 10 mM donor solution, 0 min): 0 ng/mL
concentration in receptor compartment, small intestine (porcine small intestine; 10 mM donor solution, 0 min, single chambers): 0 ng/mL
concentration in receptor compartment, small intestine, AVG (porcine small intestine; 10 mM donor solution, 30 min): 1000 ng/mL
concentration in receptor compartment, small intestine, AVG (porcine small intestine; 10 mM donor solution, 60 min): 5000 ng/mL
concentration in receptor compartment, small intestine, AVG (porcine small intestine; 10 mM donor solution, 120 min): 13000 ng/mL
concentration in receptor compartment, small intestine, AVG (porcine small intestine; 10 mM donor solution, 240 min): 33000 ng/mL
concentration in receptor compartment, small intestine, AVG (porcine small intestine; 10 mM donor solution, 360 min): 55000 ng/mL
permeability through small intestine tissue, in words (porcine small intestine; listed as propranolol): permeates well
concentration in receptor compartment, Propranolol stomach, AVG (porcine stomach (cardia); 0 min): 0 ng/mL
concentration in receptor compartment, Propranolol stomach (porcine stomach (cardia); 0 min): 0 ng/mL
concentration in receptor compartment, Propranolol stomach, AVG (porcine stomach (cardia); 30 min): 0 ng/mL
concentration in receptor compartment, Propranolol stomach (porcine stomach (cardia); 30 min): 0 ng/mL
concentration in receptor compartment, Propranolol stomach, AVG (porcine stomach (cardia); 60 min): 0 ng/mL
concentration in receptor compartment, Propranolol stomach (porcine stomach (cardia); 60 min): 0 ng/mL
concentration in receptor compartment, Propranolol stomach, AVG (porcine stomach (cardia); 120 min): 0 ng/mL
concentration in receptor compartment, Propranolol stomach (porcine stomach (cardia); 120 min): 0 ng/mL
concentration in receptor compartment, Propranolol stomach, AVG (porcine stomach (cardia); 240 min): 0 ng/mL
concentration in receptor compartment, Propranolol stomach (porcine stomach (cardia); 240 min): 0 ng/mL
concentration in receptor compartment, Propranolol stomach, AVG (porcine stomach (cardia); 420 min): 0 ng/mL
concentration in receptor compartment, Propranolol stomach (porcine stomach (cardia); 420 min): 0 ng/mL
Compound: CC(C)NCC(O)COc1cccc2ccccc12 (centres unmarked) [Propranolol]
time of peak plasma levels ([2]; after ingestion): 1 to 3 h
BSC classification ([2]; high solubility, high permeability): class 1
permeation through stomach tissue, in words (porcine stomach (cardia)): almost no permeation; also recorded: poorly penetrate through the stomach tissue

Source: patent US20210379063A1, “ORAL AMINODIHYDROPHTHALAZINEDIONE COMPOSITIONS AND THEIR USE IN THE TREATMENT OF NON-VIRAL HEPATITIS” (Immunopharma Plus D.O.O., priority 2018, published 2021)
